Measurements taken from patent publication US20060276385A1, “Anti-inflammatory agents and methods of their use” (priority 2003, published 2006).

Experiments:
MAE-p47−/− cells = assay: Monocyte adhesion to p47phox-null endothelial cells, with or without p47phox transfection; type: cell-based, mouse; details: 18 hrs
Description: (§1) Endothelial cells: Mouse aortic endothelial cells (MAEC) were cultured and used at passages 4-8 as described (Cai, H., et al. (2002) J Bio Chem 107, 48311-48317). Human aortic endothelial cells (HAEC) purchased from Clonetics were cultured using EGM-2 bullet kit (Clonetics) and used at passages 4-8. Alternatively, endothelial cells obtained from the thoracic aortas of C57/BL6 control (MAE-wt) and p47^phox-null mice (MAE-p47^−/−) were isolated and cultured as described previously (Hwang, J. et al. (2003) J Biol Chem 278:47291-8), and used between passages 4-10.
Monocyte Adhesion: Monocyte binding was determined under no-flow conditions using THP-1 monocytes (ATCC) by the method described by Chappel et al (Chappell, D. C., et al. (1998) Circ Res 82, 532-539). Briefly, THP-1 cells (5×10^5 cells/ml) were labeled with a fluorescent dye 2′,7′-bis(carboxyethyl)-5(6)-carboxyfluorescein-AM (BCECF, Molecular Probes) (1 mg/ml) in serum-free RPMI medium for 45 min at 37° C. Following exposure to shear stress or BMP treatments in the presence or absence of noggin or vehicle, the endothelial cells were washed in RPMI medium before adding BCECF-loaded THP-1 cells (1:1 ratio). After a 30 min incubation at 37° C. under no-flow conditions, unbound monocytes were removed by washing the endothelial dishes 5 times with Hank's PBS. Bound monocytes were quantified by either counting the cells under a fluorescent microscope or by measuring the fluorescent intensity of cell lysates by fluorescence spectrophotometry using a plate reader. […] Some studies were performed with MAEC pretreated with 5 μg/ml of mouse-ICAM1 antibody (YN1, Southern Biolechonology) (Kevil, C. G., et al. (2001) Am J Physiol Cell Physiol 281, C1442-1447).
Transfection of p47phox: In some studies MAE-p47^−/− cells were trasnfected withp47phox expression vector or an empty vector as described (Hwang, J. et al. (2003) J Biol Chem278-47291-8).
Next, monocyte adhesion was determined in these cells. […] After 18 hrs, cells were washed and monocyte binding was determined as described in FIG. 7. […]

ICAM-1 = ICAM-1 surface expression by FACS analysis in HAEC; type: cell-based, human
Description: as §1
Shear stress studies: Confluent endothelial monolayers grown in 100 mm tissue culture dishes were exposed to an arterial level of uni-directional LS (15 dyn/cm^2) in the growth medium by rotating a Teflon cone (0.5° cone angle) as described previously. To mimic unstable shear conditions in vivo, endothelial cells were exposed to OS with directional changes of flow at 1 Hz cycle (±5 dyn/cm^2) by rotating the cone back-and-forth using a stepping motor (Servo Motor) and a computer program (DC Motor Company, Atlanta, Ga.). In some studies, 5 dyn/cm^2 unidirectional LS was used for comparison to OS (±5 dyn/cm^2).
(§2) Fluorescence activated cytometry sorting (FACS) analysis: Treated cells were dissociated into single cell suspensions using 0.25% trypsin-EDTA and resuspended in a FACS buffer (Hank's buffered solution containing 5% FBS). Aliquots of cell suspensions were incubated with ICAM-1 antibody (R&D Systems) for 20 min on ice, washed twice with FACS buffer, and incubated with secondary antibody (fluorescein-5-isothiocyanate- or phycoerytherin-conjugated, Chemicon) for 20 min on ice in the dark. Then samples were washed again, fixed in 1% paraformaldehyde and analyzed by FACS (Calibur, Becton-Dickinson) using CellQuest software. The fluorescence intensity of ICAM-1 and forward cell scattering of 30,000 cells were measured and the geometric means calculated from histograms were shown. In some studies, HAEC were transfected with either BMP4 cloned in a bi-cistronic pAdTrack CMV vector or an empty vector, both expressing green fluorescent protein (GFP), using Lipofectamine 2000. In these experiments, ICAM-1 expression was measured in the red phycoerytherin channel, while the green channel was used to monitor the […] expression-GFP expression was determined by FACS analysis and fluorescence microscopy (20-30% transfection efficiency). Because expression of GFP was similar among different treatment groups within the same experiment, it was unnecessary to normalize ICAM-1 expression data to GFP level. Human recombinant noggin was purchased from R&D Systems and used in all experiments at 50 ng/ml (Dale, L., and Jones, C. M. (1999) Bioessays 21, 751-760; Zimmerman, L. B., et al. (1996) Cell 86, 599-606; Brunei, L. J., et al. (1998) Science 280, 1455-1457).

VCAM-1 = VCAM-1 expression in endothelial cells; type: cell-based, human
Description: as §2
(§3) HAEC treated with OS, BMP4 or static condition were analyzed by FACS using antibodies specific to VCAM-1 (C) and E-selectin (D) as described in panel A using TNFa (1OOU/ml, for 2 hr) as a positive control.

E-selectin = E-selectin surface expression by FACS analysis in HAEC; type: cell-based, human; details: TNF-α 100 U/ml for 2 hr as positive control
Description: Fluorescence activated cytometry sorting (FACS) analysis: Treated cells were dissociated into single cell suspensions using 0.25% trypsin-EDTA and resuspended in a FACS buffer (Hank's buffered solution containing 5% FBS). Aliquots of cell suspensions were incubated with ICAM-1 antibody (R&D Systems) for 20 min on ice, washed twice with FACS buffer, and incubated with secondary antibody (fluorescein-5-isothiocyanate- or phycoerytherin-conjugated, Chemicon) for 20 min on ice in the dark. Then samples were washed again, fixed in 1% paraformaldehyde and analyzed by FACS (Calibur, Becton-Dickinson) using CellQuest software. The fluorescence intensity of ICAM-1 and forward cell scattering of 30,000 cells were measured and the geometric means calculated from histograms were shown. […] In these experiments, ICAM-1 expression was measured in the red phycoerytherin channel, while the green channel was used to monitor the […] expression-GFP expression was determined by FACS analysis and fluorescence microscopy (20-30% transfection efficiency). […]
as §3

MAE-wt cells = assay: H2O2 assay by oxidation of DCF-DA; type: cell-based, mouse; details: BMP4 18 hrs
Description: H2O2 assay: Cells grown in 6-well plates were treated with BMP4 or vehicle control for 18 hrs in the presence or absence of cell-permeable polyethylene glycol (PEG)-catalase (100 U/ml). Cells were then washed once with Hepes buffered saline solution (HBSS) followed by incubation with 7.5 μg/ml 2′, 7′-dichlorofluorescein diacetate (DCF-DA, Molecular Probes) in HBSS for 1 hr at 37 C° in the dark. Cells were washed with HBSS, incubated further for an additional 40 min in HBSS, and the DCF fluorescence intensities were measured in a Cytofluor Multi-Well plate reader (excitation at 475 nm and emission at 525 nm).
In addition, BMP4 stimulated production of H2O2 by 70% above control as determined by oxidation of DCF-DA (FIG. 10B). […] The cells were washed, incubated with DCF-DA, and the fluorescent intensities determined by fluorometry. Shown is a mean±SEM (n=3, p<0.05). In this assay, a redox cycling menadione (10 μM) was used as positive control (data not shown).

BMP4
increase in monocyte adhesion above the control (MAE-p47−/− cells; MAE-p47−/− cells transfected with p47phox (rescued), BMP4 20 ng/ml or TNF-α 100 U/ml): 4- to 5 fold | monocyte adhesion response (MAE-p47−/− cells; MAE-p47−/− cells, BMP4 20 ng/ml): failed to stimulate monocyte adhesion | ICAM-1 expression above vector control cells (ICAM-1; HAEC transfected with BMP4 vector (Lipofectamine)): 3 to 4 fold | ICAM-1 expression above empty vector control (ICAM-1; HAEC, BMP4 overexpression (transfection)): 84% | effect on VCAM-1 (VCAM-1; FIG. 5E study, p>0.05, n=3): marginal at best and not significant | effect on surface expression of VCAM-1 (VCAM-1; HAEC, FACS, TNF-α 100 U/ml for 2 hr as positive control): neither OS nor BMP4 had any effect | effect on surface expression of E-selectin (E-selectin): neither OS nor BMP4 had any effect | production of H2O2 above control (MAE-wt cells): 70%
